Like-named read-outs stand apart in the source and are kept apart here.
Assays:
Striga seeds [1] = assay: Stability of formulated SL analogs in sand (Striga germination readout); type: physicochemical, Striga hermonthica; details: 1.0 μM; for Striga seed germinating activity before incubation in sand: no incubation
Description: (§1) The stability of formulated SL analogs was further tested in sand culture. About 1.5 ml of silver sand was added in each of 6 wells of 24-well plates. Then, 800 μl of formulated SL analogs (1.0 μM) was added in each of the six wells. The plates were sealed firmly with para-film, wrapped in aluminum foil, and placed at 30°C from day 1 to day 7. After 7 days, glass fiber discs containing preconditioned Striga seeds were placed on the top of each of the six wells and incubated in the dark at 30°C for 24 h. The germinated and non-germinated seeds were counted from each disc. In addition, the viability of formulated SL analogs was also tested in aqueous solution for 7 weeks at 30°C. About 800-μl aqueous solution of formulated SL analogs (1.0 μM) was added in a black Eppendorf tube weekly up to 6 weeks and incubated at 30°C. On the seventh week, about 50 μl of each analog was applied on a glass fiber disc containing preconditioned Striga seed and put again in the dark in sealed petri plates at 30°C for 24 h. Germinated and non-germinated seeds were counted from each disc.

S. hermonthica seeds = assay: Parasitic seed germination bioassay, Striga; type: in vivo, Striga hermonthica; details: for Striga germination rate: 1.0 μM, formulated and non-formulated, 24 h at 30°C; for EC50: Striga hermonthica
Description: (§2) Germination activity of SL analogs on S. hermonthica and P. aegyptiaca seeds was tested by following the procedure described before ([Jamil et al., 2012]). The preconditioned Striga and Phelipanche seeds were treated with 50 μl of each SL analog solution at a concentration range (10^−5–10^−12 M). GR24 and sterile MilliQ water were included as positive and negative controls, respectively. The treated seeds were allowed to germinate in the dark for 24 h at 30°C (for Striga) and for 1 week at 25°C (for Phelipanche). The germinated and non-germinated seeds were counted under a binocular microscope, and germination rate (in %) was calculated.
(§3) Collected data were analyzed statistically using statistical software package R (version 3.2.2).

[2] = Stability of SL analogs in aqueous solution by HPLC; type: physicochemical; details: pH 6.8, 3-day intervals up to 3 weeks
Description: The SL analogs GR24, AR8, MP13, and MP26 were first tested for their stability by high-performance liquid chromatography (HPLC) in an aqueous solution (50 μgml^−1, pH, 6.8) by adopting the previously described procedure with minor modifications ([Jamil et al., 2018]). Each compound (1 mg) was dissolved in 1-ml acetone, and then […] out of the analog solution were diluted with 150 μl ethanol and 750 μl water. Thereafter, 25 μl Indanol (1 mg ml^−1, internal standard) was spiked in 975-μl test solution. The time course of degradation was monitored by ultra-performance liquid chromatography (UPLC) analysis using a Zorbax Eclipse XDB-C18 column (3.5 μm, 4.6 mm× 150 mm), eluted first by 5% acetonitrile in water for 0.5 min, then by a gradient flow from 5 to 100% acetonitrile within 17.5 min, and by 100% acetonitrile for 5 min. The column was operated at 40°C with a flow rate of 0.35 ml min^−1, and the temperature of auto-sampler was set at 21°C. Compounds eluted from the column were detected with a photodiode array detector, and the relative quantity of non-degraded amount was calculated by integrating corresponding peak areas and comparison with the internal standard Indanol. Stability was monitored at 3-day intervals up to 3 weeks.

Striga hermonthica = assay: Striga emergence in pots under greenhouse conditions (suicidal germination, rice host); type: in vivo; details: formulated 1.0 μM; for Striga emergence at 10 WAS / decrease in Striga emergence compared to mock at 10 WAS: 10 weeks after sowing; for Striga hermonthica emergence, 5 WAS / Striga hermonthica emergence, 6 WAS / Striga hermonthica emergence, 7 WAS / Striga hermonthica emergence, 8 WAS / Striga hermonthica emergence, 9 WAS / Striga hermonthica emergence, 10 WAS: mean ± SE; for Striga hermonthica emergence, 5 WAS: n=5, 5 weeks after sowing; for Striga hermonthica emergence, 6 WAS: n=5, 6 weeks after sowing; for Striga hermonthica emergence, 7 WAS: n=5, 7 weeks after sowing; for Striga hermonthica emergence, 8 WAS: n=5, 8 weeks after sowing; for Striga hermonthica emergence, 9 WAS: n=5, 9 weeks after sowing; for Striga hermonthica emergence, 10 WAS: n=5, 10 weeks after sowing; for percent decrease in Striga hermonthica emergence over mock, 8 WAS / percent decrease in Striga hermonthica emergence over mock, 9 WAS / percent decrease in Striga hermonthica emergence over mock, 10 WAS: negative = decrease
Description: About 10 mg of (ca 4,000) Striga seeds were thoroughly mixed in 2 L of sand and soil mixture (1:1) and added in 3-L perforated plastic pot containing 0.5 L of clean soil in the bottom. Striga seeds were first preconditioned by giving light irrigation and putting pots at 35°C in greenhouse for 10 days. Each pot was sprayed with 20-ml (1.0 μM) formulated SL analogs up to 10 days at 2-day intervals. A light irrigation was given next day of each application to move the compound to Striga seeds and they were allowed to germinate for suicidal death without host for another 1 week. Then, three rice seedlings (5 days old) were planted in the middle of each pot. The rice plants were grown under normal growth condition (30°C, 70% RH) for 8 weeks. Number of emerged Striga plants in each pot were counted.

P. aegyptiaca seeds = assay: Parasitic seed germination bioassay, Phelipanche; type: in vivo, Phelipanche aegyptiaca; details: for EC50: Phelipanche aegyptiaca; for P. aegyptiaca germination rate: non-formulated, 1.0 μM, 1 week at 25°C
Description: as §2, §3

Arabidopsis seedlings = assay: Arabidopsis lateral root density assay; type: in vivo; details: compared to control seedlings; for inhibition of lateral root density: 1.0 μM
Description: The sterilized Arabidopsis seeds were grown in petri plates that were first kept at 4°C in darkness for 3 days. For hypocotyl study, the petri plates were exposed to continuous white light for 24 h, then transferred to continuous monochromatic red light (20 μmol m^−2 s^−1, 22°C) conditions for another 4 days. For lateral root density, the plates were vertically grown at 22°C in Percival incubator under long day conditions (16 h at 22°C/8 h at 16°C day/night, 60% relative humidity, 60–70 μmol m^−2 s^−1 white light) for 8 days. After scanning, the hypocotyl length and number of lateral roots were recorded using publicly available ImageJ software.^1

Striga seeds [3] = assay: Stability of formulated SL analogs in aqueous solution under storage (Striga germination readout); type: physicochemical, Striga hermonthica; details: 1.0 μM
Description: as §1

OsD14 = molecular target: T1, OsD14 (Oryza sativa subsp. japonica, UniProt Q10QA5); assay: In vitro YLG hydrolysis competition assay, OsD14; type: biochemical
T1 construct: made in house
T1 sequence (Q10QA5 1-318): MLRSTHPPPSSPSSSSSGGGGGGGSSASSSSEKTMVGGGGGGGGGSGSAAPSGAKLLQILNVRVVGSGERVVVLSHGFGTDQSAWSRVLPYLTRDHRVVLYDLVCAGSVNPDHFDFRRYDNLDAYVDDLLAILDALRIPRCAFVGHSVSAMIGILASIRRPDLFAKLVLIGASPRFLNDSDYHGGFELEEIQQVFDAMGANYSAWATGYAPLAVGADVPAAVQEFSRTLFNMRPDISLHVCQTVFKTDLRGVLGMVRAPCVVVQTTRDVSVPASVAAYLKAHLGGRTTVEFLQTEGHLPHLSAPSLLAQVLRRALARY
Description: Protein expression and purification of ShHTL7 and Oryza sativa D14 (OsD14) was carried out according to the procedure described earlier ([Jamil et al., 2018]). In vitro Yoshimulactone Green (YLG) hydrolysis assays ([Tsuchiya et al., 2015]) were carried out using 3.0 μM of protein ShHTL7 and OsD14 in a reaction buffer (1X PBS buffer, pH 7.3) with 0.1% DMSO at a 100-μl volume on a 96-well black plate (Greiner). For competitive assays, rac-GR24, AR8, MP13, and MP26 (at range between 0.01 and 50 μM) were co-incubated with 1.0 μM of YLG (Tokyo Chemical Industry Co. Ltd., product number E1238) for 60 min at room temperature. Fluorescent intensity was measured by spectraMax i5 (Molecular Devices) at excitation by 480 nm and detection by 520 nm. The change in fluorescence observed over the course of 1 h of YLG in buffer without protein was subtracted from the data collected in presence of protein. IC50 values were calculated by GraphPad (Prism 7).

[4] = read-out: EC50 Striga seed germination, formulated
[5] = read-out: EC50 Striga seed germination, non-formulated
[6] = read-out: EC50 P. aegyptiaca seed germination, formulated
[7] = read-out: EC50 P. aegyptiaca seed germination, non-formulated

SMILES: CC1=CC(O/C=C(\C)C=O)OC1=O (stereo not shown) [MP13, (E)-2-methyl-3-[(4-methyl-5-oxo-2,5-dihydrofuran-2-yl)oxy]acrylaldehyde]
- Striga seed germinating activity before incubation in sand (Striga seeds [1]): around 60%
- Striga seed germinating activity after 1 day in sand (Striga seeds [1]; sand, 30°C): 10%
- Striga seed germinating activity after 2 days in sand (Striga seeds [1]; sand, 30°C, 2 days): complete loss of the activity
- Striga germination rate (S. hermonthica seeds): 37–70%
- EC50 (S. hermonthica seeds; [4]): 0.11 µM
- EC50 (S. hermonthica seeds; [5]): 0.64 µM
- stability by HPLC (relative amount of non-degraded analog) [2]: lowest stability throughout the whole 3 weeks of analysis
- Striga emergence at 10 WAS (Striga hermonthica): six
- decrease in Striga emergence compared to mock at 10 WAS (Striga hermonthica): 52%
- Striga hermonthica emergence, 5 WAS (Striga hermonthica): 0.0±0.0
- Striga hermonthica emergence, 6 WAS (Striga hermonthica): 1.6±1.0
- Striga hermonthica emergence, 7 WAS (Striga hermonthica): 2.6±0.6
- Striga hermonthica emergence, 8 WAS (Striga hermonthica): 4.8±0.6
- Striga hermonthica emergence, 9 WAS (Striga hermonthica): 5.8±0.6
- Striga hermonthica emergence, 10 WAS (Striga hermonthica): 6.2±0.7
- percent decrease in Striga hermonthica emergence over mock, 8 WAS (Striga hermonthica): -56%
- percent decrease in Striga hermonthica emergence over mock, 9 WAS (Striga hermonthica): -51%
- percent decrease in Striga hermonthica emergence over mock, 10 WAS (Striga hermonthica): -52%
- EC50 (P. aegyptiaca seeds; [6]): 0.25 µM
- EC50 (P. aegyptiaca seeds; [7]): 0.032 µM
- P. aegyptiaca germination rate (P. aegyptiaca seeds): around 68%
- inhibition of lateral root density (Arabidopsis seedlings): did not lead to a significant effect
- Striga germination rate after 1 week's storage (Striga seeds [3]; 30°C): 9%
- Striga germination activity after 2 weeks of storage (Striga seeds [3]; 30°C, 2 weeks): not detectable
- Striga germination rate before storage (Striga seeds [3]): 53%
- IC50 (OsD14): 3.45 ± 1.2 µM

SMILES: CC1=C(C)C(O/C=C(\C)C=O)OC1=O (stereo not shown) [AR8, reference compound]
- Striga seed germinating activity after 1 day in sand (Striga seeds [1]; sand, 30°C): completely lost its ability to induce Striga germination
- Striga germination rate (S. hermonthica seeds): 9%
- EC50 (S. hermonthica seeds; [4]): 0.99 µM
- EC50 (S. hermonthica seeds; [5]): 690 µM
- stability by HPLC (relative amount of non-degraded analog) [2]: slightly less stability than GR24 and MP26 but more than MP13
- Striga emergence at 10 WAS (Striga hermonthica): 11 plants per pot
- decrease in Striga emergence compared to mock at 10 WAS (Striga hermonthica): around 18%
- Striga hermonthica emergence, 5 WAS (Striga hermonthica): 0.4±0.2
- Striga hermonthica emergence, 6 WAS (Striga hermonthica): 4.4±0.5
- Striga hermonthica emergence, 7 WAS (Striga hermonthica): 7.2±1.5
- Striga hermonthica emergence, 8 WAS (Striga hermonthica): 10.6±1.5
- Striga hermonthica emergence, 9 WAS (Striga hermonthica): 10.8±1.5
- Striga hermonthica emergence, 10 WAS (Striga hermonthica): 10.6±1.5
- percent decrease in Striga hermonthica emergence over mock, 8 WAS (Striga hermonthica): -4%
- percent decrease in Striga hermonthica emergence over mock, 9 WAS (Striga hermonthica): -11%
- percent decrease in Striga hermonthica emergence over mock, 10 WAS (Striga hermonthica): -18%
- EC50 (P. aegyptiaca seeds; [6]): 0.32 µM
- EC50 (P. aegyptiaca seeds; [7]): 0.97 µM
- P. aegyptiaca germination rate (P. aegyptiaca seeds): 32%
- inhibition of lateral root density (Arabidopsis seedlings): did not lead to a significant effect
- Striga germination rate after 1 week's storage (Striga seeds [3]; 30°C): total loss of activity
- IC50 (OsD14): 4.87 ± 0.78 µM

SMILES: COC(=O)/C=C/C(C)=C/OC1C=C(C)C(=O)O1 (stereo not shown) [MP26, (2E,4E)-methyl 4-methyl-5-(4-methyl-5-oxo-2,5-dihydrofuran-2-yloxy)penta-2,4-dienoate]
- Striga seed germinating activity before incubation in sand (Striga seeds [1]): around 60%
- Striga seed germinating activity after 1 day in sand (Striga seeds [1]; sand, 30°C): 27%
- Striga seed germinating activity after day 3 in sand (Striga seeds [1]; sand, 30°C, after day 3): not detectable
- Striga germination rate (S. hermonthica seeds): 37–70%
- EC50 (S. hermonthica seeds; [4]): 0.098 µM
- EC50 (S. hermonthica seeds; [5]): 0.35 µM
- stability by HPLC (relative amount of non-degraded analog) [2]: equal stability as GR24 up to 6 days of incubation
- Striga emergence at 10 WAS (Striga hermonthica): four
- decrease in Striga emergence compared to mock at 10 WAS (Striga hermonthica): 69%
- Striga hermonthica emergence, 5 WAS (Striga hermonthica): 0.0±0.0
- Striga hermonthica emergence, 6 WAS (Striga hermonthica): 0.8±0.6
- Striga hermonthica emergence, 7 WAS (Striga hermonthica): 1.4±0.4
- Striga hermonthica emergence, 8 WAS (Striga hermonthica): 2.6±0.4
- Striga hermonthica emergence, 9 WAS (Striga hermonthica): 3.6±0.8
- Striga hermonthica emergence, 10 WAS (Striga hermonthica): 4.0±0.9
- percent decrease in Striga hermonthica emergence over mock, 8 WAS (Striga hermonthica): -76%
- percent decrease in Striga hermonthica emergence over mock, 9 WAS (Striga hermonthica): -68%
- percent decrease in Striga hermonthica emergence over mock, 10 WAS (Striga hermonthica): -69%
- EC50 (P. aegyptiaca seeds; [6]): 0.099 µM
- EC50 (P. aegyptiaca seeds; [7]): 0.52 µM
- P. aegyptiaca germination rate (P. aegyptiaca seeds): around 68%
- inhibition at 1 µM (Arabidopsis seedlings; Arabidopsis thaliana): 43%
- Striga germination rate after 6 weeks of storage (Striga seeds [3]; 30°C, 6 weeks): 4%
- Striga germination rate before storage (Striga seeds [3]): 69%
- IC50 (OsD14): 2.07 ± 0.8 µM

— PMC6455008, “Methylation at the C-3′ in D-Ring of Strigolactone Analogs Reduces Biological Activity in Root Parasitic Plants and Rice” (Frontiers in Plant Science, 2019)
